Reference: patent US6861438B2, “Antiviral agents” (Pfizer, priority 2002, dated 2005)

O=C(NCc1ccc(Cl)cc1)c1cnc2ccsc2c1O [Example 1, N-(4-Chlorobenzyl)-7-hydroxythieno[3,2-b]pyridine-6-carboxamide]
melting point: 295 °C (dec.)

CCn1cc(C(=O)NCc2ccc(Cl)cc2)c(=O)c2sccc21 [Example 2, N-(4-Chlorobenzyl)-4-ethyl-7-oxo-4,7-dihydrothieno[3,2-b]pyridine-6-carboxamide]
melting point: 189 to 192 °C
